Test results as given in US10392389B2, “Heterocyclic compounds for the inhibition of PASK” (BioEnergenix, LLC, priority 2012, dated 2019).

What was measured:
PASK = biological target: T1, PASK (UniProt #Q96RG2; human recombinant N-terminal GST tagged construct, residues 879-1323) (Homo sapiens, UniProt Q96RG2); assay: PASK ATP Radiochemical Assay; format: biochemical; settings: 33P-ATP, Myelin Basic Protein substrate, read-out: IC50 Kinase Domain
T1 construct: N-terminal GST tagged construct, residues 879-1323; GST (N); host or cells: insect cells
Protocol: Biochemical Assay for hPASK Activity
PASK ATP Radiochemical Assay
(§1) Purified PASK (UniProt #Q96RG2; human recombinant N-terminal GST tagged construct, residues 879-1323) from insect cells (final concentration 5 nM) is added to freshly prepared Base Reaction Buffer containing 20 mM HEPES (pH 7.5), 10 mM MgCl2, 1 mM EGTA, 0.02% Brij35, 0.02 mg/ml BSA, 0.1 mM Na3VO4, 2 mM DTT, 1% DMSO and Myelin Basic Protein (20 μM final). Test compounds in DMSO are then added and the mixture, followed by delivery of ^33P-ATP (specific activity 0.01 μCi/μl final) to initiate the reaction. The kinase reaction is incubated for 120 min at room temperature. The entire reaction mixture is washed through onto a P81 Phosphocellulose paper and washed three times for 10 minutes in 75 mM phosphoric acid and once in methanol prior to drying and scintillation counting.

PASK (Invitrogen) = biological target: T2, PASK (Invitrogen) (Homo sapiens, UniProt Q96RG2); assay: PAS Kinase FRET Assay; format: biochemical; settings: PAS kinase TR-FRET assay (665 nm/615 nm); read-out: IC50 Kinase Domain
T2 construct: IC50 Kinase Domain; purchased Invitrogen
In short: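 PASK phosphorylates a ULight-peptide with ATP in 50 mM HEPES, 10 mM MgCl2, 1 mM EGTA, 0.01% Tween-20, 2 mM DTT for 2 h at 25° C in the dark. Compounds are added as 4× serial dilutions (top 12×10^−5 M at 4×). After stopping, an Eu anti-phospho-substrate antibody is added for 1 h and TR-FRET is read at 665/615 nm.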

[1] = biological target: T3, CK2a2 (NP_001887; human full-length protein, GST tagged) (Homo sapiens, UniProt P19784); assay: Biochemical Assay for CK2 Activity; settings: 33P-ATP radiochemical assay, CK2 sub [RRRDDDSDDD]
T3 construct: human full-length protein, GST tagged; GST; host or cells: insect cells
Protocol: Biochemical Assay for CK2 Activity
as §1, with “Purified CK2a2 (NP_001887;” for “Purified PASK (UniProt #Q96RG2;”, “human full-length protein,” for “human recombinant N-terminal”, “GST tagged)” for “GST tagged construct, residues 879-1323)”, “concentration 1.2” for “concentration 5”, “mM Hepes” for “mM HEPES”, “and CK2 sub [RRRDDDSDDD]” for “and Myelin Basic Protein”

[2] = biological target: T4, PIM1 (NP_002639; human full-length protein, 6×His tagged) (Homo sapiens, UniProt P11309); assay: Biochemical Assay for PIM1 Activity; settings: 33P-ATP radiochemical assay, S6K/Rsk2 peptide 2 substrate
T4 construct: human full-length protein, 6×His tagged; 6xHis; host or cells: insect cells
Protocol: Biochemical Assay for PIM1 Activity
as §1, with “Purified PIM1 (NP_002639;” for “Purified PASK (UniProt #Q96RG2;”, “human full-length protein, 6×His tagged)” for “human recombinant N-terminal GST tagged construct, residues 879-1323)”, “concentration 1.0” for “concentration 5”, “mM Hepes” for “mM HEPES”, “and substrate S6K/Rsk2 peptide 2 [KKRNRTLTK]” for “and Myelin Basic Protein”, “activity 10” for “activity 0.01”

Measured: IC50

T2 sequence (Q96RG2 999-1251 limits assumed): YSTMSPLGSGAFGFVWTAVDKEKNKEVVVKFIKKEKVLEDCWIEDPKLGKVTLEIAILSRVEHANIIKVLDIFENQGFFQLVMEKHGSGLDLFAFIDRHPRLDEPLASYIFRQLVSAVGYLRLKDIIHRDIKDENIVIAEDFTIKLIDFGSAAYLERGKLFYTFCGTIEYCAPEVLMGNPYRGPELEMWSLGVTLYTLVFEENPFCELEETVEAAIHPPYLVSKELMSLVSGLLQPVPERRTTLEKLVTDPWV
T3 sequence (P19784 whole entry): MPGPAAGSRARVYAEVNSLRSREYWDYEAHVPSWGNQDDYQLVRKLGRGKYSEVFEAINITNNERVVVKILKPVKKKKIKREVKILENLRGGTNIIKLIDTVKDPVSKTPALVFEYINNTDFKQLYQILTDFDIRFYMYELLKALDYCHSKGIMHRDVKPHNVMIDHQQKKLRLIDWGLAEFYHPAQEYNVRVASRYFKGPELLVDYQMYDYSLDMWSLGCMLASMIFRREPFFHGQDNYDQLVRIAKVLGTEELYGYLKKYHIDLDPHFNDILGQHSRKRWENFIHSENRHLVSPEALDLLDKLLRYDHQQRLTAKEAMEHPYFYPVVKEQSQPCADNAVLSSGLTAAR
T1 sequence (Q96RG2 879-1323, stated change not applied): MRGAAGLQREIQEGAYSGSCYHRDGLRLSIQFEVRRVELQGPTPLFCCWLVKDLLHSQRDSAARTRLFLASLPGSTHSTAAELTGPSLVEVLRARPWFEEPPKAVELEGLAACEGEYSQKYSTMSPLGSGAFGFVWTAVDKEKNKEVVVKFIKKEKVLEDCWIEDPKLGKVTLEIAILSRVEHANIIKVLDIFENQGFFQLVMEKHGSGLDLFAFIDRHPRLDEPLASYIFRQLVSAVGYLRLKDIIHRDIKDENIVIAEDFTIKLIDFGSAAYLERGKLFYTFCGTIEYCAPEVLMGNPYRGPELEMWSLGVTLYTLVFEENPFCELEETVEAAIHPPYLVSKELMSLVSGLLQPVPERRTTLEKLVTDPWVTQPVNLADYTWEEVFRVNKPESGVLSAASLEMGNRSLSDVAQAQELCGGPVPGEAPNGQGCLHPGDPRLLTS
T4 sequence (P11309 whole entry): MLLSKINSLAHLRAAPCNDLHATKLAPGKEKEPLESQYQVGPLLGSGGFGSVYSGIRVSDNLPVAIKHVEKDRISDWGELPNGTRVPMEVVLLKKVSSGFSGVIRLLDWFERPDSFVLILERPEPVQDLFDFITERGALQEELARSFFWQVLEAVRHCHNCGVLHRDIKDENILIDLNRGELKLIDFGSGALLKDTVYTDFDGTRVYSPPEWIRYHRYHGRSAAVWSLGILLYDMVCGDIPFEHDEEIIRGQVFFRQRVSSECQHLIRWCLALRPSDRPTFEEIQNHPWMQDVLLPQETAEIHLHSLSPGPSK

O=c1cc(-c2ccc(Cl)c(Cl)c2)[nH]c2c(-c3cc[nH]n3)cnn12 [Example 70, 5-(3,4-dichlorophenyl)-3-(1H-pyrazol-3-yl)pyrazolo[1,5-a]pyrimidin-7(4H)-one]
≤ 10 µM: all assays above

CCn1ncc2cc(-c3cc(=O)n4ncc(-c5cc(C)no5)c4[nH]3)ccc21 [Example 86, 5-(1-ethyl-1H-indazol-5-yl)-3-(3-methylisoxazol-5-yl)pyrazolo[1,5-a]pyrimidin-7(4H)-one]
≤ 10 µM: all assays above

COc1cc(-c2cc(=O)n3ncc(-c4ccnn4C)c3[nH]2)ccc1F [Example 79, 5-(4-fluoro-3-methoxyphenyl)-3-(1-methyl-1H-pyrazol-5-yl)pyrazolo[1,5-a]pyrimidin-7(4H)-one]
≤ 10 µM: all assays above

O=c1cc(-c2ccc(Cl)cc2)[nH]c2c(-c3nccs3)cnn12 [Example 57, 5-(4-chlorophenyl)-3-(thiazol-2-yl)pyrazolo[1,5-a]pyrimidin-7(4H)-one]
≤ 10 µM: all assays above

CCn1ncc2cc(-c3cc(=O)n4ncc(-c5ncc(-c6ccccc6)o5)c4[nH]3)ccc21 [Example 64, 5-(1-ethyl-1H-indazol-5-yl)-3-(5-phenyloxazol-2-yl)pyrazolo[1,5-a]pyrimidin-7(4H)-one]
≤ 10 µM: all assays above

CCc1coc(-c2cnn3c(=O)cc(-c4ccc5[nH]nnc5c4)[nH]c23)n1 [Example 15, 5-(1H-1,2,3-benzotriazol-5-yl)-3-(4-ethyl-1,3-oxazol-2-yl)-4H,7H-pyrazolo[1,5-a]pyrimidin-7-one]
≤ 10 µM: all assays above

CCn1ncc2cc(-c3cc(=O)n4ncc(-c5nc(C)co5)c4[nH]3)ccc21 [Example 13, 5-(1-Ethyl-1H-indazol-5-yl)-3-(4-methyl-1,3-oxazol-2-yl)-4H,7H-pyrazolo[1,5-a]pyrimidin-7-one]
≤ 10 µM: all assays above

CCn1ncc2cc(-c3cc(=O)n4ncc(-c5ncco5)c4[nH]3)ccc21 [Example 20, 5-(1-Ethyl-1H-indazol-5-yl)-3-(1,3-oxazol-2-yl)-4H,7H-pyrazolo[1,5-a]pyrimidin-7-one]
≤ 10 µM: all assays above

CCn1nccc1-c1cnn2c(=O)cc(-c3ccc4c(cnn4C)c3)[nH]c12 [Example 93, 3-(1-ethyl-1H-pyrazol-5-yl)-5-(1-methyl-1H-indazol-5-yl)pyrazolo[1,5-a]pyrimidin-7(4H)-one]
≤ 10 µM: all assays above

Cc1coc(-c2cnn3c(=O)cc(-c4ccc5c(c4)OCO5)[nH]c23)n1 [Example 4, 5-(2H-1,3-benzodioxol-5-yl)-3-(4-methyl-1,3-oxazol-2-yl)-4H,7H-pyrazolo[1,5-a]pyrimidin-7-one]
≤ 10 µM: all assays above
